Several values for one entry are separate records, joined by “and”; a condition that tells them apart may be missing. Identical values can stand only once. Entries after “also recorded” stand apart in the source; their conditions may differ. Bridges are numbered along the chain shown (N, C = ends).
Legend:
[1] = system: N. gonorrhoeae FA1090; assay: Serum bactericidal assay, immune mouse sera plus human complement; assay type: cell-based; conditions: for immune sera showing >50% killing: IgM-depleted sera at 1:30 (3.3%); for immune sera showing <50% survival (>50% killing): intact sera at 3.3% (1:30)
Method: […] Sera from mice diluted 1:1 in PBS was mixed with anti-mouse IgM agarose (Sigma; binding capacity ≥0.4 mg/ml) (1 volume of packed agarose to 1 volume of serum diluted 1:1) in a 2.0 ml microspin filter column (Costar) with a pore size of 0.22 μM) for 15 min at 22° C. Filter-sterilized IgM depleted sera were collected by centrifugation of the mixture at 1000 g for 2 min and heat-inactivated (56° C. for 30 min) to eliminate intrinsic complement activity in mouse serum prior to use in serum bactericidal assays where human complement was substituted.
(§1) Serum bactericidal assays were performed. Bacteria that had been harvested from an overnight culture on chocolate agar plates were repassaged onto fresh chocolate agar and allowed to grow for 6 h at 37° C. in an atmosphere containing 5% CO2. Bacteria were then suspended in HBSS containing 1 mM MgCl2 and 0.15 mM CaCl2) (HBSS++) for use in serum bactericidal assays. Briefly, about 2000 colony forming units (CFUs) of N. gonorrhoeae FA090 were incubated with serial dilutions of immune mouse sera (heat-inactivated and IgM-depleted) in the presence or absence of 20% normal human serum (NHS) as a source of human complement. Serum bactericidal assays with strain MS11 were performed with IgG and IgM depleted NHS (Human complement; Pel-Freez) because this strain is susceptible to killing by NHS. Final volumes of bactericidal reaction mixtures were 150 μl. Aliquots of 25-μl reaction mixtures were plated onto chocolate agar in duplicate at the beginning of the assay (to) and again after incubation at 37° C. for 30 min (t30). Survival was calculated as the number of viable colonies at t30 relative to t0.

[2] = system: 15253 ΔlgtG LOS; assay: ELISA of immune sera against 2C7-negative LOS (specificity); assay type: in vivo, N. gonorrhoeae; conditions: sera of mice immunized with TMCP2 + GLA-SE
Method: Microtiter wells were coated with LOS purified from 15253 or 15253 ΔlgtG (80 μg/ml) in PBS as described previously. Serial dilutions of immune sera were dispensed into wells and bound anti-LOS Ab was disclosed with anti-mouse IgG conjugated to alkaline phosphatase. A standard curve for mouse IgG was generated by coating wells with anti-mouse IgG (Sigma) and pure mouse IgG (Sigma) also as described previously.

[3] = system: N. gonorrhoeae strain 15253; assay: Serum bactericidal activity of antisera raised against tetra-MAP candidates; assay type: cell-based; conditions: post-dose 5 IgM-depleted antiserum 1:3, 17% NHS; Sigma MPL adjuvant; compared with TMCP3, TMCP4
Method: See Tables 1A-1K for a description of peptides. Post-dose 5 mouse anti-serum (IgM depleted) was tested against N. gonorrhoeae strain 15253 at a final dilution of 1:3 in the presence of 17% normal human serum (NHS) as the complement source. Y-axis, % killing ([CFU at t0−CFU at t30/CFU at t0]×100).
as §1

[(CH2-CO-GPIPVLDENGLFAPGPC)-K-OH]4 ({CH2CO}-GPIPVLDENGLFAPGPCK-OH; thioether N-17; also: tetrameric MAP) [TMCP2]
killing of FA1090, one serum sample ([1]; IgM-depleted post-dose 3 serum, 1:6 (16.7%), 50 μg/dose group): 47% | immune sera showing >50% killing ([1]; 100 μg/dose group): Three of five | immune sera showing >50% killing ([1]; 200 μg/dose group): three of four | Survival in intact immune serum ([1]; Table 4, TMCP2 200 μg/dose + GLA-SE, immune serum 16.7% (1/6), 16.7% NHS): 0.00% and 6.19% | killing of FA1090 by intact immune sera, all sera ([1]; final dilution 1:6 (16.7% immune serum), TMCP2 50, 100, 200 μg/dose + GLA-SE): > 50% | immune sera showing <50% survival (>50% killing) ([1]; 50 μg/dose group): Four of 5 | immune sera showing <50% survival (>50% killing) ([1]; 100 μg/dose group): 3 of 5 | immune sera showing <50% survival (>50% killing) ([1]; 200 μg/dose group): 3 of 4 | IgG reactivity of immune sera with 15253 ΔlgtG LOS [2]: non-reactivity; also recorded: no IgG binding | complement-dependent bactericidal activity of antisera [3]: maximal

Reference: patent US12629410B2, “Multi-antigenic peptide mimics of gonococcal lipo-oligosaccharide (LOS) epitopes” (priority 2019, dated 2026)
